This is an account of results in patent US11680060B2, “Bicycloheptane pyrrolidine orexin receptor agonists” (Merck Sharp & Dohme LLC, priority 2020, dated 2023).

human OX2R, sequence (O43614 whole entry): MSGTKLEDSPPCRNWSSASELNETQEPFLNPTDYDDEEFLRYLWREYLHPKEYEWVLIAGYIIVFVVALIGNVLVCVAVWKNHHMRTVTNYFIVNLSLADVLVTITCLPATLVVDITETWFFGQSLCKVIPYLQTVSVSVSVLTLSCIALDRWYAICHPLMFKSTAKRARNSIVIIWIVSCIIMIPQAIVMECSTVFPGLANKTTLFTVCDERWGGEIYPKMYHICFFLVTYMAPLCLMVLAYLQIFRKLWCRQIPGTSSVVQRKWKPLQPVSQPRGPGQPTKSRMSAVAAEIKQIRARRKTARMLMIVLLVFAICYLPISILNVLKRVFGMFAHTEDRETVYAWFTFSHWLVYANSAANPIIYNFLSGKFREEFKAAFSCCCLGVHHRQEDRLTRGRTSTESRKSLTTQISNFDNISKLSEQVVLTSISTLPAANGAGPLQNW

The target in one assay is human OX2R (Homo sapiens (Human), UniProt O43614). Description: IPOne (IP-1) assay in CHO cells expressing human OX2R. Type of assay: cell-based. Conditions: CHO cells expressing human OX2R; IP-One detection; 2 hours incubation; EC50 = inflection point of four parameter logistic fit; read-out: hOX2R_IP_IC50. From the text:
The utility of the compounds in accordance with the present invention as orexin receptor OX1R and/or OX2R agonists may be readily determined without undue experimentation by methodology well known in the art. Both the OX1R and/or OX2R G-coupled protein receptors (GPCRs) couple through the Gαq signaling pathway, which ultimately promotes calcium mobilization via inositol triphosphate (IP3) production. The half-life of IP-3 is relatively short, being rapidly metabolized to inositol monophosphate (IP-1), which can be readily detected using a commercially available assay kit (IP-One; Cisbio; cat #621PAPEC) coupled with a cell line expressing the target receptor(s) of interest. The utility of the compounds in accordance with the present invention as orexin receptor OX1R and/or OX2R agonists may be determined utilizing this assay.
In a typical experiment, the OX1 and OX2 receptor agonist activity is determined in accordance with the following general experimental method. Chinese hamster ovary (CHO) cells expressing human OX1R and/or the human OX2R were grown in Iscove's modified DMEM containing glutaMAX™, 1% G418, 100 U/mL penicillin, 100 μg/mL streptomycin and 10% heat-inactivated qualified fetal bovine serum (FBS). The OX2R cells were seeded at 10,000 cells/well/50 μL and the OX1R cells were seeded at 20,000 cells/well/50 μL into 384-well white tissue culture plates (Greiner; cat #781080). All cell/media reagents were from GIBCO-Invitrogen Corp. The seeded cell plate(s) were incubated at 37° C. with 5% CO2 and 85% humidity for 20-24 hours. On the day of the assay, assay-ready compound plates were prepared using an acoustic liquid handler (ECHO; Labcyte), which dispensed sufficient volume of test compound stock (10 mM in DMSO) or 100% DMSO to prepare 10 point, ½-log dilutions in a final volume of 202.5 nL/well in all test wells of a 384-well diamond plate (Labcyte). Following completion of assay-ready plates, importantly, the next three steps were performed with minimal delay: 1) 20 μl of 1× stimulation buffer was added to the compound plate using a Multidrop Combi (small cassette, Thermo Fisher Scientific cat #24073290); 2) culture medium was removed from the cell plate using the Bluewasher plate washer (gentle spin; BlueCatBio); 3) 14 μl of compound/stimulation buffer mixture was added to the cell plate using a Bravo liquid handler (Agilent) prior to incubating cell plates at 37° C. with 5% CO2 and 85% humidity for 1 or 2 hours (OX1R and OX2R, respectively). During this incubation, IP-one detection reagents were prepared (38:1:1 lysis buffer:D2:AB-cryptate reagents). Six μL of mixed detection reagents were added to the cell plate using a Multidrop Combi (small cassette, Thermo Fisher Scientific cat #24073290) and incubated 60 minutes at room temperature in the dark. Fluorescence signal was detected using an Envision plate reader (Perkin Elmer) [LANCE/DELFIA Dual Enh (Em: APC 665; Ex: Cy5 620)].
For each compound, data were fit to a four parameter logistic fit (ActivityBase software) and the EC50 was reported as the inflection point of the resulting curve. Percent effect for each test compound was determined as the percentage of sample raw value/mean max effect, where the mean max effect was derived from the mean raw value of 32 control wells per assay plate (using Orexin A (cat #003-30) at 1 μM for human OX1R and a reference compound at 1 uM with 100% activity previously established by comparison to Orexin A for human OX2R). The intrinsic orexin receptor agonist activity of a compound which may be used in the present invention may be determined by these assays.
Take `COC(=O)N1CC[C@H](NS(C)(=O)=O)[C@@H]1CO[C@@H]1CC[C@]2(c3ncccn3)C[C@@H]2C1` (single isomer, unassigned) [Example 176]: the IC50 amounted to 2030 nM.
`CC(C)OC(=O)N1[C@H](C)C[C@H](NS(=O)(=O)CF)[C@@H]1CO[C@@H]1CC[C@]2(c3ncc(Cl)cn3)C[C@@H]2C1` (single isomer, unassigned) [Example 96]: the IC50 is 6.5 nM.

Staying with this assay, now noted: CHO, percentage of mean max effect of a reference compound at 1 uM (100% activity by comparison to Orexin A), human OX2R; read-out: Emax (%).
For `COC(=O)N1CC[C@H](NS(C)(=O)=O)[C@@H]1CO[C@@H]1CC[C@]2(c3ncccn3)C[C@@H]2C1` (single isomer, unassigned) [Example 176], the maximal effect (Emax) (commonly the greatest response seen or fitted, relative to the assay's reference) worked out at 94.7%.
Turning to `CC(C)OC(=O)N1[C@H](C)C[C@H](NS(C)(=O)=O)[C@@H]1CO[C@@H]1CC[C@]2(c3ncc(F)cn3)C[C@@H]2C1` [Example 29, isopropyl (2R,3S,5R)-2-((((1R,3R,6S)-6-(5-fluoropyrimidin-2-yl)bicyclo[4.1.0]heptan-3-yl)oxy)methyl)-5-methyl-3-(methylsulfonamido)pyrrolidine-1-carboxylate], the Emax amounted to 102%.
Still for that read-out and setting: in the case of `COC(=O)N1[C@H](C)C[C@H](NS(=O)(=O)CF)[C@@H]1CO[C@H]1CC[C@@]2(c3ncc(F)cn3)C[C@H]2C1` [Example 30, methyl (2R,3S,5R)-3-((fluoromethyl)sulfonamido)-2-((((1S,3S,6R)-6-(5-fluoropyrimidin-2-yl)bicyclo[4.1.0]heptan-3-yl)oxy)methyl)-5-methylpyrrolidine-1-carboxylate] it was 99.2%.
On the same count and under the same terms, in the case of `C[C@@H]1C[C@H](NS(C)(=O)=O)[C@H](CO[C@H]2CC[C@@]3(c4ncc(F)cn4)C[C@H]3C2)N1C(=O)OCC1(F)CCC1` [Example 53, (1-fluorocyclobutyl)methyl (2R,3S,5R)-2-((((1S,3S,6R)-6-(5-fluoropyrimidin-2-yl)bicyclo[4.1.0]heptan-3-yl)oxy)methyl)-5-methyl-3-(methylsulfonamido)pyrrolidine-1-carboxylate] it was 104%; in that of `CC(C)OC(=O)N1[C@H](C)C[C@H](NS(=O)(=O)CF)[C@@H]1COC1CCC2(c3ncc(Cl)cn3)CC2C1` (stereo partly drawn) [Example 107, isopropyl (2R,3S,5R)-2-(((6-(5-chloropyrimidin-2-yl)bicyclo[4.1.0]heptan-3-yl)oxy)methyl)-3-((fluoromethyl)sulfonamido)-5-methylpyrrolidine-1-carboxylate], 104%; in that of `COC(=O)N1[C@@H]2CCC[C@@H]2[C@H](NS(C)(=O)=O)[C@@H]1COC1CCC2(c3ncccn3)CC2C1` (stereo partly drawn) [Example 175, methyl (2R,3S,3aS,6aR)-3-(methylsulfonamido)-2-(((6-(pyrimidin-2-yl)bicyclo[4.1.0]heptan-3-yl)oxy)methyl)hexahydrocyclopenta[b]pyrrole-1(2H)-carboxylate], 99.9%.
Consider `COC(=O)N1[C@H](C)C[C@H](NS(=O)(=O)C(C)C)[C@@H]1CO[C@@H]1CC[C@]2(c3ncc(F)cn3)C[C@@H]2C1` [Example 46, methyl (2R,3S,5R)-2-((((1R,3R,6S)-6-(5-fluoropyrimidin-2-yl)bicyclo[4.1.0]heptan-3-yl)oxy)methyl)-5-methyl-3-((1-methylethyl)sulfonamido)pyrrolidine-1-carboxylate], for which the Emax came out at 100%.
The same measure, in the same setting: the figure for `CC(C)OC(=O)N1[C@H](C)C[C@H](NS(=O)(=O)CF)[C@@H]1CO[C@@H]1CC[C@]2(c3ncc(Cl)cn3)C[C@@H]2C1` (single isomer, unassigned) [Example 96] is 103%.
`COC(=O)N1[C@H](C)C[C@H](NS(C)(=O)=O)[C@@H]1CO[C@@H]1CC[C@]2(c3ncc(F)cn3)C[C@@H]2C1` [Example 136, methyl (2R,3S,5R)-2-((((1R,3R,6S)-6-(5-fluoropyrimidin-2-yl)bicyclo[4.1.0]heptan-3-yl)oxy)methyl)-5-methyl-3-(methylsulfonamido)pyrrolidine-1-carboxylate]: the Emax is 101%.
Regarding `COC(=O)N1[C@H](C)C[C@H](NS(C)(=O)=O)[C@@H]1COC1CCC2(c3ncc(F)c(OC)n3)CC2C1` (stereo partly drawn) [Example 76, methyl (2R,3S,5R)-2-(((6-(5-fluoro-4-methoxypyrimidin-2-yl)bicyclo[4.1.0]heptan-3-yl)oxy)methyl)-5-methyl-3-(methylsulfonamido)pyrrolidine-1-carboxylate], the maximal response (Emax) came out at 101%.
